According to US8431748B2, “Low protonation constant hydroxy acids” (BWE I Malmo AB, priority 2006, dated 2013):

How the values were obtained:
[1] = Solubility of the product in solvents; type: physicochemical
[2] = pKa determination by titration with aqueous potassium hydroxide
Description: The pKa value was taken as the pH at ½-equivalent volume of potassium hydroxide and corrected against a standard curve prepared from measurements on maleic acid, succinic acid, methacrylic acid, propanoic acid and pentanoic acid.

[3] = Effect of hydrogen peroxide oxidation of thioether sulphur on pKa; type: physicochemical; conditions: 0.82-2.17 eq. H2O2 (30%), after 2 days at room temperature, average pKa of oxidation products
Method: Five aqueous (35 ml) solutions of GALA (approx 2 mmol) was prepared) and varying amounts of hydrogen peroxide (0.82-2.17 eq., 30%) added. The average pKa value of the oxidation products was assessed after 2 days at room temperature, and the relation between pKa and mol ratio H2O2/S can be seen in FIG. 1.

[4] = in water, pH at 1/2-equivalent volume of 0.1 M KOH, corrected against a standard curve

SMILES	solubility in hexane [1]	solubility in methanol [1]	pKa ([2]; water)	pKa [2, 4]	other results
CCC(CO)(CO)COCCCSC(C)C(=O)O (stereo not drawn) [TELA, Trimethyolpropane Monoallyl Ether-Thiolactic Acid Adduct]	not soluble	soluble			solubility in toluene ([1]; toluene): soluble
CCC(CO)(CO)C(=O)O [DMBA, 2,2-bis-(hydroxymethyl)butanoic acid, reference compound]			4.55		
CC(CO)(CO)C(=O)O [DMPA, 2,2-bis-(hydroxymethyl)propanoic acid, reference compound]			4.64		
CC(SCCCOCC(O)CO)C(=O)O (stereo not drawn) [GALA, Glycerol Monoallyl Ether-Thiolactic Acid Adduct]	not soluble	soluble		3.67	reduction of pKa value by addition of hydrogen peroxide [3]: approximately 1 unit; solubility in ethanol/toluene (1/4) ([1]; ethanol/toluene (1/4)): soluble; solubility in water ([1]; water): soluble
O=C(O)CSCCCOCC(O)CO (stereo not drawn) [GAMA, Glycerol 1-Monoallyl Ether-Mercaptoacetic Acid]				3.60	
